Test results reported in patent publication US8247211B2, “Glycopeptide antibiotics” (American Cyanamid Company, priority 2001, dated 2012).
Converted amounts (≈) assume the structure as drawn. Each block holds one compound with its values, some of them ahead of it.

Assays:
Test in all cases: In vitro antibacterial evaluation: minimum inhibitory concentration (MIC), broth dilution method
Assay type in all cases: cell-based
Conditions in all cases: 18 hours at 35° C.
Staphylococcus sp. = system: Staphylococcus sp.
Method in brief: (§1)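 Following NCCLS approved standard M7-A2, compounds are serially diluted from 64 to 0.06 μg/mL in Muller-Hinton II […] and inoculated at 5×10^5 CFU/mL; the MIC is the minimum concentration at which growth is inhibited.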

Escherichia coli = system: Escherichia coli
Method in brief: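 An MIC is reported for each organism as the least concentration giving inhibition, using broth dilution over 64-0.06 μg/mL with a 5×10^5 CFU/mL inoculum.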

Streptococcus sp. = system: Streptococcus sp.
Method in brief: as §1

Enterococcus sp. = system: Enterococcus sp.
Method in brief: as §1

[1] = Streptococcus agalactiae (GC 4564)
[2] = Streptococcus pneumoniae (ATCC 6301)
[3] = Streptococcus pneumoniae (GC 1894)
[4] = Streptococcus pneumoniae (GC 4565)
[5] = Streptococcus pyogenes (GC 4563)
[6] = broth dilution, inoculum 5×10^5 CFU/mL
[7] = Enterococcus faecalis (ATCC 29212)
[8] = Enterococcus faecalis (GC 2242)
[9] = Enterococcus faecalis (GC 2691)
[10] = Enterococcus faecalis (GC 3059)
[11] = Enterococcus faecalis (GC 4552)
[12] = Enterococcus faecalis (GC 4553)
[13] = Enterococcus faecalis (GC 4554)
[14] = Enterococcus faecalis (GC 6189)

MIC Coagulase Negative Staphylococcus (GC 4547) (Staphylococcus sp.): 2 µg/mL (≈ 1.34 µM) | MIC Coagulase Negative Staphylococcus (GC 4548) (Staphylococcus sp.): 0.5 µg/mL (≈ 0.335 µM) | MIC Coagulase Negative Staphylococcus (GC 4549) (Staphylococcus sp.): 0.5 µg/mL (≈ 0.335 µM) | MIC Coagulase Negative Staphylococcus (GC 4551) (Staphylococcus sp.): 1 µg/mL (≈ 0.67 µM) | MIC Coagulase Negative Staphylococcus (GC 6257) (Staphylococcus sp.): 0.5 µg/mL (≈ 0.335 µM) | MIC Staphylococcus aureus (ATCC 29213) (Staphylococcus sp.): 1 µg/mL (≈ 0.67 µM) | MIC Staphylococcus aureus (GC 1131) (Staphylococcus sp.): 2 µg/mL (≈ 1.34 µM) | MIC Staphylococcus aureus (GC 3051) (Staphylococcus sp.): 2 µg/mL (≈ 1.34 µM) | MIC Staphylococcus aureus (GC 3053) (Staphylococcus sp.): 2 µg/mL (≈ 1.34 µM) | MIC Staphylococcus aureus (GC 4541) (Staphylococcus sp.): 2 µg/mL (≈ 1.34 µM) | MIC Staphylococcus aureus (GC 4542) (Staphylococcus sp.): 2 µg/mL (≈ 1.34 µM) | MIC Staphylococcus aureus (GC 4544) (Staphylococcus sp.): 2 µg/mL (≈ 1.34 µM) | MIC Staphylococcus aureus (GC 4545) (Staphylococcus sp.): 2 µg/mL (≈ 1.34 µM) | MIC Staphylococcus aureus-SMITH (GC 4543) (Staphylococcus sp.): 1 µg/mL (≈ 0.67 µM) | MIC Escherichia coli (GC 4560) (Escherichia coli): 2 µg/mL (≈ 1.34 µM) | MIC Streptococcus agalactiae (GC 4564) (Streptococcus sp.; [1]): <0.12 µg/mL | MIC Streptococcus pneumoniae (ATCC 6301) (Streptococcus sp.; [2]): <0.12 µg/mL | MIC Streptococcus pneumoniae (GC 1894) (Streptococcus sp.; [3]): <0.12 µg/mL | MIC Streptococcus pneumoniae (GC 4565) (Streptococcus sp.; [4]): <0.12 µg/mL | MIC Streptococcus pyogenes (GC 4563) (Streptococcus sp.; [5]): <0.12 µg/mL | MIC Streptococcus agalactiae (GC 4564) (Streptococcus sp.; [6]): <0.12 µg/mL | MIC Streptococcus pneumoniae (ATCC 6301) (Streptococcus sp.; [6]): <0.12 µg/mL | MIC Streptococcus pneumoniae (GC 1894) (Streptococcus sp.; [6]): <0.12 µg/mL | MIC Streptococcus pneumoniae (GC 4565) (Streptococcus sp.; [6]): <0.12 µg/mL | MIC Streptococcus pyogenes (GC 4563) (Streptococcus sp.; [6]): <0.12 µg/mL | MIC Enterococcus avium (GC 4558) (Enterococcus sp.; Enterococcus avium (GC 4558)): 4 µg/mL (≈ 2.68 µM) | MIC Enterococcus faecalis (ATCC 29212) (Enterococcus sp.; [7]): 4 µg/mL (≈ 2.68 µM) | MIC Enterococcus faecalis (GC 2242) (Enterococcus sp.; [8]): 4 µg/mL (≈ 2.68 µM) | MIC Enterococcus faecalis (GC 2691) (Enterococcus sp.; [9]): 8 µg/mL (≈ 5.36 µM) | MIC Enterococcus faecalis (GC 3059) (Enterococcus sp.; [10]): 4 µg/mL (≈ 2.68 µM) | MIC Enterococcus faecalis (GC 4552) (Enterococcus sp.; [11]): 4 µg/mL (≈ 2.68 µM) | MIC Enterococcus faecalis (GC 4553) (Enterococcus sp.; [12]): 4 µg/mL (≈ 2.68 µM) | MIC Enterococcus faecalis (GC 4554) (Enterococcus sp.; [13]): 4 µg/mL (≈ 2.68 µM) | MIC Enterococcus faecalis (GC 6189) (Enterococcus sp.; [14]): 4 µg/mL (≈ 2.68 µM) | MIC Enterococcus faecium (GC 2243) (Enterococcus sp.; Enterococcus faecium (GC 2243)): 4 µg/mL (≈ 2.68 µM) | MIC Enterococcus faecium (GC 4556) (Enterococcus sp.; Enterococcus faecium (GC 4556)): 4 µg/mL (≈ 2.68 µM) | MIC Enterococcus faecium (GC 4557) (Enterococcus sp.; Enterococcus faecium (GC 4557)): 4 µg/mL (≈ 2.68 µM) | MIC Enterococcus avium (GC 4558) (Enterococcus sp.; [6]): 4 µg/mL (≈ 2.68 µM) | MIC Enterococcus faecalis (ATCC 29212) (Enterococcus sp.; [6]): 4 µg/mL (≈ 2.68 µM) | MIC Enterococcus faecalis (GC 2242) (Enterococcus sp.; [6]): 4 µg/mL (≈ 2.68 µM) | MIC Enterococcus faecalis (GC 2691) (Enterococcus sp.; [6]): 8 µg/mL (≈ 5.36 µM) | MIC Enterococcus faecalis (GC 3059) (Enterococcus sp.; [6]): 4 µg/mL (≈ 2.68 µM) | MIC Enterococcus faecalis (GC 4552) (Enterococcus sp.; [6]): 4 µg/mL (≈ 2.68 µM) | MIC Enterococcus faecalis (GC 4553) (Enterococcus sp.; [6]): 4 µg/mL (≈ 2.68 µM) | MIC Enterococcus faecalis (GC 4554) (Enterococcus sp.; [6]): 4 µg/mL (≈ 2.68 µM) | MIC Enterococcus faecalis (GC 6189) (Enterococcus sp.; [6]): 4 µg/mL (≈ 2.68 µM) | MIC Enterococcus faecium (GC 2243) (Enterococcus sp.; [6]): 4 µg/mL (≈ 2.68 µM) | MIC Enterococcus faecium (GC 4556) (Enterococcus sp.; [6]): 4 µg/mL (≈ 2.68 µM) | MIC Enterococcus faecium (GC 4557) (Enterococcus sp.; [6]): 4 µg/mL (≈ 2.68 µM)
SMILES: CC(c1ccccc1)C1NC(=O)CNC(=O)C(CO)NC(=O)C(C(O)C2CNC(=N)N2C2OC(CO)C(O)C(O)C2O)NC(=O)C(C(O)C2CNC(=N)N2)NC(=O)C(Cc2ccc(OC3OC(CO)C(OC4OC(CO)C(O)C(OCc5ccc(OCc6ccccc6)cc5)C4O)C(O)C3O)cc2)NC1=O (stereo not drawn) [Example 231c]
MIC Staphylococcus haemolyticus (GC 4546) (Staphylococcus sp.): 1 µg/mL (≈ 0.67 µM)

MIC Coagulase Negative Staphylococcus (GC 4547) (Staphylococcus sp.): 2 µg/mL (≈ 1.41 µM) | MIC Coagulase Negative Staphylococcus (GC 4548) (Staphylococcus sp.): 2 µg/mL (≈ 1.41 µM) | MIC Coagulase Negative Staphylococcus (GC 4549) (Staphylococcus sp.): 1 µg/mL (≈ 0.707 µM) | MIC Coagulase Negative Staphylococcus (GC 4551) (Staphylococcus sp.): 4 µg/mL (≈ 2.83 µM) | MIC Coagulase Negative Staphylococcus (GC 6257) (Staphylococcus sp.): 2 µg/mL (≈ 1.41 µM) | MIC Staphylococcus aureus (ATCC 29213) (Staphylococcus sp.): 4 µg/mL (≈ 2.83 µM) | MIC Staphylococcus aureus (GC 1131) (Staphylococcus sp.): 4 µg/mL (≈ 2.83 µM) | MIC Staphylococcus aureus (GC 3051) (Staphylococcus sp.): 4 µg/mL (≈ 2.83 µM) | MIC Staphylococcus aureus (GC 3053) (Staphylococcus sp.): 8 µg/mL (≈ 5.65 µM) | MIC Staphylococcus aureus (GC 4541) (Staphylococcus sp.): 4 µg/mL (≈ 2.83 µM) | MIC Staphylococcus aureus (GC 4542) (Staphylococcus sp.): 4 µg/mL (≈ 2.83 µM) | MIC Staphylococcus aureus (GC 4544) (Staphylococcus sp.): 4 µg/mL (≈ 2.83 µM) | MIC Staphylococcus aureus (GC 4545) (Staphylococcus sp.): 4 µg/mL (≈ 2.83 µM) | MIC Staphylococcus aureus-SMITH (GC 4543) (Staphylococcus sp.): 4 µg/mL (≈ 2.83 µM) | MIC Escherichia coli (ATCC 25922) (Escherichia coli; Escherichia coli (ATCC 25922)): >64 µg/mL | MIC Escherichia coli (GC 4559) (Escherichia coli; Escherichia coli (GC 4559)): 64 µg/mL (≈ 45.2 µM) | MIC Escherichia coli (GC 4560) (Escherichia coli): 2 µg/mL (≈ 1.41 µM) | MIC Streptococcus agalactiae (GC 4564) (Streptococcus sp.; [1]): 2 µg/mL (≈ 1.41 µM) | MIC Streptococcus pneumoniae (ATCC 6301) (Streptococcus sp.; [2]): 0.5 µg/mL (≈ 0.353 µM) | MIC Streptococcus pneumoniae (GC 1894) (Streptococcus sp.; [3]): 0.5 µg/mL (≈ 0.353 µM) | MIC Streptococcus pneumoniae (GC 4565) (Streptococcus sp.; [4]): 1 µg/mL (≈ 0.707 µM) | MIC Streptococcus pyogenes (GC 4563) (Streptococcus sp.; [5]): 2 µg/mL (≈ 1.41 µM) | MIC Streptococcus agalactiae (GC 4564) (Streptococcus sp.; [6]): 2 µg/mL (≈ 1.41 µM) | MIC Streptococcus pneumoniae (ATCC 6301) (Streptococcus sp.; [6]): 0.5 µg/mL (≈ 0.353 µM) | MIC Streptococcus pneumoniae (GC 1894) (Streptococcus sp.; [6]): 0.5 µg/mL (≈ 0.353 µM) | MIC Streptococcus pneumoniae (GC 4565) (Streptococcus sp.; [6]): 1 µg/mL (≈ 0.707 µM) | MIC Streptococcus pyogenes (GC 4563) (Streptococcus sp.; [6]): 2 µg/mL (≈ 1.41 µM) | MIC Enterococcus avium (GC 4558) (Enterococcus sp.; Enterococcus avium (GC 4558)): 32 µg/mL (≈ 22.6 µM) | MIC Enterococcus faecalis (ATCC 29212) (Enterococcus sp.; [7]): 32 µg/mL (≈ 22.6 µM) | MIC Enterococcus faecalis (GC 2242) (Enterococcus sp.; [8]): 16 µg/mL (≈ 11.3 µM) | MIC Enterococcus faecalis (GC 2691) (Enterococcus sp.; [9]): 32 µg/mL (≈ 22.6 µM) | MIC Enterococcus faecalis (GC 3059) (Enterococcus sp.; [10]): 32 µg/mL (≈ 22.6 µM) | MIC Enterococcus faecalis (GC 4552) (Enterococcus sp.; [11]): 32 µg/mL (≈ 22.6 µM) | MIC Enterococcus faecalis (GC 4553) (Enterococcus sp.; [12]): 32 µg/mL (≈ 22.6 µM) | MIC Enterococcus faecalis (GC 4554) (Enterococcus sp.; [13]): 32 µg/mL (≈ 22.6 µM) | MIC Enterococcus faecalis (GC 6189) (Enterococcus sp.; [14]): 64 µg/mL (≈ 45.2 µM) | MIC Enterococcus faecium (GC 2243) (Enterococcus sp.; Enterococcus faecium (GC 2243)): 16 µg/mL (≈ 11.3 µM) | MIC Enterococcus faecium (GC 4556) (Enterococcus sp.; Enterococcus faecium (GC 4556)): 32 µg/mL (≈ 22.6 µM) | MIC Enterococcus faecium (GC 4557) (Enterococcus sp.; Enterococcus faecium (GC 4557)): 4 µg/mL (≈ 2.83 µM) | MIC Enterococcus avium (GC 4558) (Enterococcus sp.; [6]): 32 µg/mL (≈ 22.6 µM) | MIC Enterococcus faecalis (ATCC 29212) (Enterococcus sp.; [6]): 32 µg/mL (≈ 22.6 µM) | MIC Enterococcus faecalis (GC 2242) (Enterococcus sp.; [6]): 16 µg/mL (≈ 11.3 µM) | MIC Enterococcus faecalis (GC 2691) (Enterococcus sp.; [6]): 32 µg/mL (≈ 22.6 µM) | MIC Enterococcus faecalis (GC 3059) (Enterococcus sp.; [6]): 32 µg/mL (≈ 22.6 µM) | MIC Enterococcus faecalis (GC 4552) (Enterococcus sp.; [6]): 32 µg/mL (≈ 22.6 µM) | MIC Enterococcus faecalis (GC 4553) (Enterococcus sp.; [6]): 32 µg/mL (≈ 22.6 µM) | MIC Enterococcus faecalis (GC 4554) (Enterococcus sp.; [6]): 32 µg/mL (≈ 22.6 µM) | MIC Enterococcus faecalis (GC 6189) (Enterococcus sp.; [6]): 64 µg/mL (≈ 45.2 µM) | MIC Enterococcus faecium (GC 2243) (Enterococcus sp.; [6]): 16 µg/mL (≈ 11.3 µM) | MIC Enterococcus faecium (GC 4556) (Enterococcus sp.; [6]): 32 µg/mL (≈ 22.6 µM) | MIC Enterococcus faecium (GC 4557) (Enterococcus sp.; [6]): 4 µg/mL (≈ 2.83 µM)
SMILES: COc1ccc(COCC2OC(OC3C(CO)OC(Oc4ccc(CC5NC(=O)C(C(C)c6ccccc6)NC(=O)CNC(=O)C(CO)NC(=O)C(C(O)C6CNC(=N)N6C6OC(CO)C(O)C(O)C6O)NC(=O)C(C(O)C6CNC(=N)N6)NC5=O)cc4)C(O)C3O)C(O)C(O)C2O)cc1 (stereo not drawn) [Example 232, Cyclo[glycyl-β-methylphenylalanyl-O-[4-O-[6-O-(4-methoxybenzyl)hexopyranosyl]hexopyranosyl]tyrosyl-3-(2-iminoimidazolidin-4-yl)seryl-3-(3-hexopyranosyl-2-iminoimidazolidin-4-yl)serylseryl]]
MIC Staphylococcus haemolyticus (GC 4546) (Staphylococcus sp.): 2 µg/mL (≈ 1.41 µM)
